{
  "source": "patent US9351947B2",
  "about": "“Use of catecholamines and related compounds as anti-angiogenic agents” (National Research Council of Canada, priority 2007, dated 2016)",
  "key": {"[1]": {"conditions": "humans, cited from earlier work"}, "[2]": {"conditions": "Groups I vs II and III vs IV", "description": "Two-month-old male Sprague-Dawley rats were purchased from Charles River, Canada. They were housed in the Biotechnology Research Institute (BRI)-animal facility. […] Diabetes was induced in male Sprague-Dawley rats weighing approximately 200 to 250 g by a single intraperitoneal injection of the beta-cell toxin, Streptozotocin (STZ) (Sigma, St. Louis, Mich.), at a dose of 60 mg/kg body weight in 0.1M citrate buffer pH 4.5. Non-diabetic control rats received citrate buffer only.\nOne week following induction of diabetes, glucose levels were determined in the blood sampled from the tail vein using a blood glucose monitoring system (Ascensia ELITE Blood Glucose Meter, Bayer Inc, Toronto, ON, Canada). Since the limit of detection of the blood glucose meter was 33 mM, any value above that has been assigned a maximum value of 35 mM. Only animals with blood glucose levels higher than 15 mM were retained in the study.\nEye drops or vehicle were administered twice a day, seven days a week, on the cornea of different groups of rats, with a minimum interval of 7 h between the two treatments. To promote weight gain and limit hyperglycemia, diabetic rats were injected sub-cutaneously with 2 IU ultralente insulin (Humulin, Eli Lilly, Toronto, ON, Canada) three times a week. Animal weights were monitored every week."}, "[3]": {"conditions": "mouse, in vivo, iv; cited from earlier work"}, "HUVECs [4]": {"test_system": "HUVECs", "experiment": "Matrigel endothelial cell capillary-tube formation assay", "assay_type": "cell-based, human", "method": "HUVECs were purchased from Cedarlane Laboratories (Burlington, Canada) and maintained in Endothelial Cell Basal Medium-2 (EBM-2) supplemented with EGM-2 growth factor mixture (Clonetics) and 2% Foetal bovine serum. The cells were cultured at 37° C. under a humidified 95%/5% (v/v) mixture of air and CO2.\nMatrigel endothelial cell tube formation assays were performed using BD Matrigel™ (Becton, Dickinson). BD Matrigel™ was thawed at 4° C., and 150 μL were quickly added to each well of a 48-well plate and allowed to solidify for 60 min at 37° C. HUVECs (7×10^4 cells/mL) In EC basal medium-2 (EBM-2) were seeded 250 μL per well onto the surface of the solid BD Matrigel™ in the presence of the compounds to be tested. The cells were incubated for 22 h at […] in a 5% CO2 incubator. Tube formation was monitored by using a Leitz Labovert (Leitz, Wetzlar, Germany) inverted microscope. Two randomly selected two microscopic fields were photographed with a digital camera (Nikon, COOLPICKS 995). The total length of tube structures in each photograph was measured using ImageJ™ free software (http://rsb.info.nih.gov/ij/) and was normalized to that of control with no test compound. Each reported value represents the average of total six photographs from three independent experiments."}, "[5]": {"experiment": "Body weight of rats with eye drop treatment", "assay_type": "in vivo, Sprague-Dawley rats", "excerpt": "Prevention of diabetic retinopathy by (S)-isoproterenol […] drop was studied using a rat model. […] Animal weights were monitored every week."}, "HUVECs [6]": {"test_system": "HUVECs", "experiment": "Invasion of HUVECs through Matrigel-coated filter (Matrigel Invasion Chambers)", "assay_type": "cell-based, human", "method": "HUVECs were purchased from Cedarlane Laboratories (Burlington, Canada) and maintained in Endothelial Cell Basal Medium-2 (EBM-2) supplemented with EGM-2 growth factor mixture (Clonetics) and 2% Foetal bovine serum. The cells were cultured at 37° C. under a humidified 95%/5% (v/v) mixture of air and CO2. Invasion of endothelial cells was measured using BD BioCoatTM Growth Factor Reduced MatrigelTM Invasion Chambers (Beckton-Dickinson; […]). EBM-2 medium (500 μL each) was placed into the lower wells. HUVECs (2.5×10^4) in EBM-2 serum-free medium (500 μL) were seeded into each of the upper wells and incubated in the presence of a test compound. HUVECs were allowed to migrate for 36 h at 37° C. in an atmosphere of 95% air/5% CO2. HUVECs that remained on the upper surface of the filter were removed using a cotton swab. HUVECs that had migrated to the lower surface of the filters were fixed with methanol, stained with 0.1% crystal violet/20% (v/v) methanol and examined using a Leitz Labovert (Leitz, Wetzlar, Germany) inverted microscope after mounting on a slide. Three randomly selected microscopic fields were digitally captured using a Nikon […] 995 digital camera and the number of HUVECs in each photograph were directly counted. Each reported value represents the average and standard deviation of a total […] from two independent experiments."}, "[7]": {"experiment": "Optical stability (racemization) in eye drop formulations, 10 days at 55° C., chiral HPLC", "assay_type": "physicochemical", "conditions": "for % optical purity: 1.7 mg/mL, pH 6.0, starting material 99.90%", "method": "The optical isomers of (S)-isoproterenol bitartrate and (S)-isoproterenol dipivalate hydrochloride were separated by HPLC using Shiseido chiral CD-Ph column (250×4.6 mm; 5 μm; isocratic 60:40 of 0.5 M sodium perchlorate/water and acetonitrile; flow rate, 1.0 mL/min). The elution profile was monitored by the absorption at 223 nm for isoproterenol bitartrate and 264 nm for isoproterenol dipivalate hydrochloride. The optical impurities were quantitated by the absorbance at 223 nm for isoproterenol bitartrate and 264 nm for isoproterenol dipivalate hydrochloride and by using a curve fitting software TABLECurve2D (Systat). The impurities of (R)-isoproterenol bitartrate and (R)-isoproterenol dipivalate hydrochloride were estimated as […], respectively. Thus, the racemization induced during synthesis and purification was minimal, if it occurred.\nTable 2 describes the optical purities of (S)-isoproterenol and (S)-isoproterenol dipivalate after incubation in various eye drop formulations for 10 days at 55° C. and compared with those before incubation. The incubation for 10 days at 55° C. corresponds to the incubation for 167 days at 22° C."}, "[8]": {"conditions": "large intravenous dose; cited from earlier work"}, "[9]": {"conditions": "17.6% eye drop, rabbit; cited from earlier work"}, "[10]": {"conditions": "topical administration of up to 20%, human eye; cited from earlier work"}, "[11]": {"conditions": "58 μg/kg intravenously, dogs; cited from earlier work"}},
  "data": [
    {"compound": "CC(C)NC[C@@H](O)c1ccc(O)c(O)c1", "note": "[(S)-isoproterenol]", "values": [
      {"measurement": "side effects of topically applied 10% solution", "setting": "[1]; 10%, topical", "value": "brief mild conjunctival hyperemia and irritation"},
      {"measurement": "side effects of 20% eye drop", "setting": "[1]; 20% eye drop", "value": "marked conjunctival hyperemia and mild miosis that persisted for several hours"},
      {"measurement": "effect on the blood glucose level and diabetes", "setting": "[2]", "value": "does not affect"},
      {"measurement": "LD50", "setting": "[3]", "value": "113 ± 5", "unit": "mg/kg"},
      {"measurement": "anti-angiogenic activity at 95% w/w optical purity", "setting": "HUVECs [4]; 95% w/w optically pure, total isoproterenol 20 μM, FIG. 3", "value": "in the transition from non-antianglogenic to anti-angiogenic"},
      {"measurement": "potency (inhibition of capillary tube formation)", "setting": "HUVECs [4]; angiogenic assay condition used in FIG. 1, 1-50 μM, 22 h", "value": "around 10 μM"},
      {"measurement": "Activity (anti-angiogenicity)", "setting": "HUVECs [4]; measured at 20 μM, HUVECs on Matrigel, 22 h", "value": "anti-angiogenic activity"},
      {"measurement": "optical purity of (S)-isoproterenol at which anti-angiogenic activity was observed", "setting": "HUVECs [4]; various ratios of (S)- and (R)-isoproterenol, total 20 μM, FIG. 3", "value": "at least 97 % w/w"},
      {"measurement": "effect on weight gain/loss", "setting": "[5]; diabetic rats, Group IV vs Group III", "value": "no effect"},
      {"measurement": "effect on weight gain/loss", "setting": "[5]; non-diabetic rats, Group II vs Group I", "value": "no effect"},
      {"measurement": "reduction of the invasion of HUVECs in Matrigel", "setting": "HUVECs [6]; 20 μM", "value": 60, "unit": "%"},
      {"measurement": "Activity (anti-invasion)", "setting": "HUVECs [6]; measured at 20 μM, HUVECs", "value": "Anti-invasive"},
      {"measurement": "conversion to the (R)-isoform", "setting": "[7]; 10 days at 55° C.", "value": 2.55, "unit": "%"},
      {"measurement": "% optical purity", "setting": "[7]; 10 days at 55° C., NaCl 8 mg/mL, Benzalkonium chloride 0.04 mg/mL, Tween 80 2.5 mg/mL", "value": 96.68, "unit": "%"},
      {"measurement": "% optical purity", "setting": "[7]; 10 days at 55° C., Povidone 2 mg/mL, Benzalkonium chloride 0.04 mg/mL, D-Mannitol 54.7 mg/mL", "value": 97.90, "unit": "%"},
      {"measurement": "% optical purity", "setting": "[7]; 10 days at 55° C., Povidone 2 mg/mL, D-Mannitol 54.7 mg/mL, Chlorobutanol 1 mg/mL, 2-hydroxypropyl cyclodextrin 10.1 mg/mL", "value": 97.56, "unit": "%"},
      {"measurement": "% optical purity", "setting": "[7]; 10 days at 55° C., Povidone 2 mg/mL, NaCl 8 mg/mL, Benzalkonium chloride 0.04 mg/mL, 2-hydroxypropyl cyclodextrin 10.1 mg/mL", "value": 97.26, "unit": "%"},
      {"measurement": "average optical purity after incubating 10 days at 55° C.", "setting": "[7]; average over the eye drop formulations", "value": "97.35±0.52", "unit": "%"},
      {"measurement": "optical purity after 655 days of storage at room temperature", "setting": "[7]; extrapolated, from 99.90%", "value": 90, "unit": "%"},
      {"measurement": "effects on blood pressure and pulse rate", "setting": "[8]", "value": "only slight and transient effects"},
      {"measurement": "systemic effects (heart rate, blood pressure, hematologic or serum chemistry values, necropsy)", "setting": "[9]", "value": "no systemic effects"}
    ]},
    {"compound": "CC(C)NC[C@@H](O)c1ccc(O)c(O)c1.Cl", "note": "[(S)-isoproterenol hydrochloride]", "values": [
      {"measurement": "lowering of intra-ocular pressure", "setting": "[10]", "value": "did not show any indication to lower intra-ocular pressure"}
    ]},
    {"compound": "CC(C)NCC(O)c1ccc(OC(=O)C(C)(C)C)c(OC(=O)C(C)(C)C)c1", "note": "(racemic) [(R,S)-isoproterenol dipivalate]", "values": [
      {"measurement": "cardiovascular responses", "setting": "[11]", "value": "the same responses as those of (R,S)-isoproterenol"}
    ]}
  ]
}
